The values that follow come from ChEMBL document CHEMBL3286374, “Muchimangins G-J, fully substituted xanthones with a diphenylmethyl substituent, from Securidaca longepedunculata” (J Nat Prod, 2014).

Test [1] has as its system PANC-1. The test can be described thus: Cytotoxicity against human PANC1 cells in nutrient-rich DMEM media by WST8 assay. It is filed as functional, cell-based.
Test [2] concerns PANC-1. In words: Cytotoxicity against human PANC1 cells in nutrient-deprived NDM media by WST8 assay. Type of test: functional, cell-based. In general terms: Tetrazolium dyes change colour on reduction, which living cells bring about.

Molecules are shown by their SMILES. Activity calls are given as the source filed them. No cut-off for these calls is given here.

`COc1cc(OC)c(C(c2ccccc2)c2c(O)c(OC)c3oc4c(OC)c5c(c(OC)c4c(=O)c3c2O)OCO5)cc1OC` (stereo not drawn): the result in the test with PANC-1 [1] and in the test on PANC-1 [2] was inactive.
For `COc1cc(OC)c(C(c2ccccc2)c2c(O)c(OC)c3oc4c(O)c(OC)c(OC)c(OC)c4c(=O)c3c2O)cc1OC` (stereo not drawn), the outcome in the test with PANC-1 [1] and in the test with PANC-1 [2] was inactive.
For the compound `COc1cc(OC)c(C(c2ccccc2)c2c(O)c(OC)c3oc4c(OC)c(OC)c(OC)c(O)c4c(=O)c3c2O)cc1OC` (stereo not drawn), the outcome in the test on PANC-1 [1] and with PANC-1 [2] was inactive.
Regarding `COc1cc(OC)c(C(c2ccccc2)c2c(O)c(OC)c3oc4c(OC)c(O)c(OC)c(O)c4c(=O)c3c2O)cc1OC` (stereo not drawn), the result with PANC-1 [1] and in the test with PANC-1 [2] was inactive.
